Counter-ions that a name gives are not always drawn. Like-named read-outs stand apart in the source and are kept apart here.
Biological target: hNav1.7 (Homo sapiens (Human), UniProt Q15858)
Assay: Tritiated sulfonamide competitive binding to membranes from cells expressing hNav1.7 and the β1 subunit;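 also: Filter-bound radioactivity counted by liquid scintillation, nonspecific binding defined with excess unlabelled ligand, IC50 fitted to percent inhibition of specific binding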
[1] = read-out: Ligand Binding Assay, 100 pM [3H]compound, membranes with hNav1.7 and β1 subunit, 18 h, room temperature

hNav1.7, sequence (Q15858 other isoform, or with tags, fused parts or gaps): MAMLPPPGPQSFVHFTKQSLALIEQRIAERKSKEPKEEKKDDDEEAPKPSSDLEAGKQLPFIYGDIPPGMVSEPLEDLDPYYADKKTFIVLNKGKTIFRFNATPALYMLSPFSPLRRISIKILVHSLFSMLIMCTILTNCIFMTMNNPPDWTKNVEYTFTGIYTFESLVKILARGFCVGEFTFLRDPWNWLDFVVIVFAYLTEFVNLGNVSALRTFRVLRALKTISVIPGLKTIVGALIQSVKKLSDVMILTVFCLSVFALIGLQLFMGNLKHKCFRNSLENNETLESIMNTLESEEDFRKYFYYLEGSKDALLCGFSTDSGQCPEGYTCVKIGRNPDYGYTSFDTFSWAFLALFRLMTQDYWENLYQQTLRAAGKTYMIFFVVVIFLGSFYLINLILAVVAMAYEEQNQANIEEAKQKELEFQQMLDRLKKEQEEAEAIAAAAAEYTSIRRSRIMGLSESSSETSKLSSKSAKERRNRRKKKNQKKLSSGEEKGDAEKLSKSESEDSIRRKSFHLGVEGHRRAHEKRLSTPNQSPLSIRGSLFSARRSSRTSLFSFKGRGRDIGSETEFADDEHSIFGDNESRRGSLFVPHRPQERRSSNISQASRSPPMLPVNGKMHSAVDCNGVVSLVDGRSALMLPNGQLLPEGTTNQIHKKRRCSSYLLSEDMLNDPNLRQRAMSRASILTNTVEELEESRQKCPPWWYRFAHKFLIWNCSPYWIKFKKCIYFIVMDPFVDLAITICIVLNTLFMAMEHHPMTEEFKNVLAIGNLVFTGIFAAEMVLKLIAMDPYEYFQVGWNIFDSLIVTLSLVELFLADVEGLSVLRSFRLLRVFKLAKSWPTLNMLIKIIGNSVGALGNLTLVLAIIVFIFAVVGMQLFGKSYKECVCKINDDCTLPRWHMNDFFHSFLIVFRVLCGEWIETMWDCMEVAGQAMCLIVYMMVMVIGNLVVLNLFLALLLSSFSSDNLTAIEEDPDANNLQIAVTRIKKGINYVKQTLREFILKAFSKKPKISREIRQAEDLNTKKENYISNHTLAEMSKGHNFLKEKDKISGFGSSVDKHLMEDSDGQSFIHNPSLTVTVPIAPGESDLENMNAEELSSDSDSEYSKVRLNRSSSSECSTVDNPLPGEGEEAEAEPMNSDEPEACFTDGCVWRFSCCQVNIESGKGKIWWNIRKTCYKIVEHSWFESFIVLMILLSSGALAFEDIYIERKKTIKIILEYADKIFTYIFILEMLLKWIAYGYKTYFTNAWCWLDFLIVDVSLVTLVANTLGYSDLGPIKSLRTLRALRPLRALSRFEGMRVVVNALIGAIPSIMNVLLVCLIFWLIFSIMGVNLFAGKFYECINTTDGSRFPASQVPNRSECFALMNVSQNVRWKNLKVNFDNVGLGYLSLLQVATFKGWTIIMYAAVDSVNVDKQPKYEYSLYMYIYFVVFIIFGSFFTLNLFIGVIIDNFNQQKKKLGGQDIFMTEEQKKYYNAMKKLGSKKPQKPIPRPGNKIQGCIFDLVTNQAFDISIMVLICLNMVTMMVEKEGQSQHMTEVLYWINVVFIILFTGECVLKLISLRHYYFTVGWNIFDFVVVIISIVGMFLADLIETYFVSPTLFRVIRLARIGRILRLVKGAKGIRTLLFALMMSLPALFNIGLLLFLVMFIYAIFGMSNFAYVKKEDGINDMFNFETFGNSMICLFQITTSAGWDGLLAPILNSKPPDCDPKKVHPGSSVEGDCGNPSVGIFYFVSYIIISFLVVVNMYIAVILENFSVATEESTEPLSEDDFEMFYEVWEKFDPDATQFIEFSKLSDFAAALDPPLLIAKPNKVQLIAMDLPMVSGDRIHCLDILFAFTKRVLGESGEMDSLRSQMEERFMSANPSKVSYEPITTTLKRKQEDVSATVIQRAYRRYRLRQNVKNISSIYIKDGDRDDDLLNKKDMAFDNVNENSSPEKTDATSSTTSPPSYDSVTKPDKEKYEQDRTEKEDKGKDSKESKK
hNav1.7, sequence (Q07699 19-218 partner): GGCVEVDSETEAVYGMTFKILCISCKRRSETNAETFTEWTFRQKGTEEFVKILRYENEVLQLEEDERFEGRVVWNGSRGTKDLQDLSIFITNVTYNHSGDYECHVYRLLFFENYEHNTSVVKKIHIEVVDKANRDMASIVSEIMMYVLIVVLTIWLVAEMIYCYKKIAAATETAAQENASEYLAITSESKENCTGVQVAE

Row | SMILES | IC50 | IC50 [1]
1 | O=C(NS(=O)(=O)C1CC1)c1cc(C2CC2)c(O[C@@H]2CCCN(c3ccc(F)cc3)C2)cc1F [Example 38, (R)-5-cyclopropyl-N-(cyclopropylsulfonyl)-2-fluoro-4-((1-(4-fluorophenyl)piperidin-3-yl)oxy)benzamide] | 3.9 nM | 
2 | CS(=O)(=O)NC(=O)c1cc(C2CC2)c(O[C@@H]2CCCN(C(=O)c3cc(Cl)cc(Cl)c3)C2)cc1F [Example 221, (R)-5-cyclopropyl-4-((1-(3,5-dichlorobenzoyl)piperidin-3-yl)oxy)-2-fluoro-N-(methylsulfonyl)benzamide] |  | 1800 nM
3 | C[C@@H](c1cc(Cl)cc(Cl)c1)N1CCC(COc2cc(F)c(C(=O)NS(=O)(=O)C3CC3)cc2Cl)CC1 [Example 403, (S)-5-chloro-N-(cyclopropylsulfonyl)-4-((1-(1-(3,5-dichlorophenyl)ethyl)piperidin-4-yl)methoxy)-2-fluorobenzamide, trifluoroacetic acid salt] |  | 17 nM
4 | CS(=O)(=O)NC(=O)c1cc(C2CC2)c(O[C@@H]2CCCN(c3ccc(C(F)(F)F)cn3)C2)cc1F [Example 490, (R)-5-cyclopropyl-2-fluoro-N-(methylsulfonyl)-4-((1-(5-trifluoromethyl)pyridin-2-yl)piperidin-3-yl)oxy)benzamide, trifluoroacetic acid salt] |  | 42.3 nM
5 | O=C(NS(=O)(=O)C1CC1)c1cc(C2CC2)c(O[C@@H]2CCCN(Cc3ccc(F)cc3Cl)C2)cc1F [Example 7, (R)-4-((1-(2-chloro-4-fluorobenzyl)piperidin-3-yl)oxy)-5-cyclopropyl-N-(cyclopropylsulfonyl)-2-fluorobenzamide] | 3.5 nM | 
6 | CS(=O)(=O)NC(=O)c1cc(C2CC2)c(OC[C@@H]2CCN(Cc3cc(Cl)cc(Cl)c3)C(=O)C2)cc1F (single isomer, unassigned) [Example 234] |  | 170 nM
7 | CS(=O)(=O)NC(=O)c1cc(C2CC2)c(CN2CCC(Oc3cccc(C(F)(F)F)c3)CC2)cc1F [Example 501, 5-cyclopropyl-2-fluoro-N-(methylsulfonyl)-4-((4-(3-(trifluoromethyl)phenoxy)piperidin-1-yl)methyl)benzamide, trifluoroacetic acid salt] | 13.4 nM | 
8 | CS(=O)(=O)NC(=O)c1cc(C2CC2)c(OCCC2CCN(Cc3cc(Cl)cc(Cl)c3)CC2)cc1F [Example 302, 5-cyclopropyl-4-(2-(1-(3,5-dichlorobenzyl)piperidin-4-yl)ethoxy)-2-fluoro-N-(methylsulfonyl)benzamide, trifluoroacetic acid salt] |  | 5.7 nM
9 | CC(C)Oc1ncc(CN2CC(COc3cc(F)c(C(=O)NS(C)(=O)=O)cc3C3CC3)C2)cc1Cl [Example 83, 4-((1-((5-Chloro-6-isopropoxypyridin-3-yl)methyl)azetidin-3-yl)methoxy)-5-cyclopropyl-2-fluoro-N-(methylsulfonyl)benzamide] |  | 59 nM
10 | C[C@H](c1cc(Cl)cc(Cl)c1)N1CCC(C#N)(COc2cc(F)c(C(=O)NS(C)(=O)=O)cc2C2CC2)CC1 [Example 597] |  | 27.6 nM
11 | CS(=O)(=O)NC(=O)c1cc(C2CC2)c(O[C@@H]2CCCN(Cc3ccc(F)cc3C(F)(F)F)C2)cc1F [Example 34, (R)-5-cyclopropyl-2-fluoro-4-((1-(4-fluoro-2-(trifluoromethyl)benzyl)piperidin-3-yl)oxy)-N-(methylsulfonyl)benzamide] | 1.9 nM | 
12 | O=C(NS(=O)(=O)N1CCC1)c1cc(C2CC2)c(O[C@@H]2CCCN(Cc3ccc(F)cc3F)C2)cc1F [Example 8, (R)—N-(azetidin-1-ylsulfonyl)-5-cyclopropyl-4-((1-(2,4-difluorobenzyl)-piperidin-3-yl)oxy)-2-fluorobenzamide] | 8.1 nM | 
13 | CS(=O)(=O)NC(=O)c1cc(C2CC2)c(OCC2CCN(c3cc(Cl)cc(Cl)c3)CC2)cc1F [Example 292, 5-Cyclopropyl-4-((1-(3,5-dichlorophenyl)piperidin-4-yl)methoxy)-2-fluoro-N-(methylsulfonyl)benzamide] |  | 2.9 nM
14 | O=C(NS(=O)(=O)C(F)F)c1cc(C2CC2)c(OCC2CN(C(c3ccccc3)c3ccccc3)C2)cc1F [Example 62] |  | 47 nM
15 | CCS(=O)(=O)NC(=O)c1cc(C2CC2)c(OCC2CCN([C@@H](COC)c3ccc(Cl)cc3Cl)CC2)cc1F [Example 287, (R)-5-cyclopropyl-4-((1-(1-(2,4-dichlorophenyl)-2-methoxyethyl)piperidin-4-yl)methoxy)-N-(ethylsulfonyl)-2-fluorobenzamide] |  | 3.5 nM
16 | COCC(c1cc(Cl)cc(Cl)c1)N1CC(COc2cc(F)c(C(=O)NS(C)(=O)=O)cc2C2CC2)C1 (stereo not drawn) [Example 91, 5-Cyclopropyl-4-((1-(1-(3,5-dichlorophenyl)-2-methoxyethyl)azetidin-3-yl)methoxy)-2-fluoro-N-(methylsulfonyl)benzamide] |  | 14.7 nM
17 | C[C@H](c1cc(Cl)cc(Cl)c1)N1[C@@H]2CC[C@H]1C[C@H](COc1cc(F)c(C(=O)NS(C)(=O)=O)cc1C1CC1)C2 [Example 353, 5-cyclopropyl-4-(((1R,3S,5S)-8-((R)-1-(3,5-dichlorophenyl)ethyl)-8-azabicyclo[3.2.1]octan-3-yl)methoxy)-2-fluoro-N-(methylsulfonyl)benzamide, trifluoroacetic acid salt] |  | 11 nM
18 | O=C(NS(=O)(=O)C1CC1)c1cc(C2CC2)c(O[C@@H]2CCCN(Cc3ccc(F)cc3)C2)cc1F [Example 21, (R)-5-cyclopropyl-N-(cyclopropylsulfonyl)-2-fluoro-4-((1-(4-fluorobenzyl)piperidin-3-yl)oxy)benzamide] | 11.2 nM | 
19 | CS(=O)(=O)NC(=O)c1cc(C2CC2)c(O[C@@H]2CCCN(c3cc(Cl)cc(Cl)c3)C2)cc1F [Example 44, (R)-5-cyclopropyl-4-((1-(3,5-dichlorophenyl)piperidin-3-yl)oxy)-2-fluoro-N-(methylsulfonyl)benzamide] | 3.6 nM | 
20 | C[C@@H](c1cc(F)cc(Cl)c1)N1CCC(COc2cc(F)c(C(=O)NS(C)(=O)=O)cc2C2CC2)CC1 (single isomer, unassigned) [Example 231] |  | 5.9 nM
21 | CS(=O)(=O)NC(=O)c1cc(C2CC2)c(OC[C@@H]2CCCN(Cc3cc(Cl)cc(Cl)c3)C2)cc1F [Example 334, (R)-5-cyclopropyl-4-((1-(3,5-dichlorobenzyl)piperidin-3-yl)methoxy)-2-fluoro-N-(methylsulfonyl)benzamide] |  | 7.1 nM
22 | CC(c1cc(Cl)cc(Cl)c1)N1CCN(Cc2cc(F)c(C(=O)NS(C)(=O)=O)cc2C2CC2)CC1 (stereo not drawn) [Example 540] |  | 7.8 nM

Second part, the compound after the results:

Row | IC50 | IC50 [1] | SMILES
23 |  | 5.6 nM | CC1(COc2cc(F)c(C(=O)NS(=O)(=O)C3CC3)cc2C2CC2)CN(c2cc(Cl)c(C(F)(F)F)cn2)C1 [Example 486, 4-((1-(4-chloro-5-(trifluoromethyl)pyridin-2-yl)-3-methylazetidin-3-yl)methoxy)-5-cyclopropyl-N-(cyclopropylsulfonyl)-2-fluorobenzamide, trifluoroacetic acid salt]
24 |  | 45.9 nM | CS(=O)(=O)NC(=O)c1cc(C2CC2)c(OCC2CCN(S(=O)(=O)c3ccc(OC(F)(F)F)cc3)CC2)cc1F [Example 378, 5-cyclopropyl-2-fluoro-N-(methylsulfonyl)-4-((1-((4-(trifluoromethoxy)phenyl)sulfonyl)piperidin-4-yl)methoxy)benzamide]
25 | 7.3 nM |  | O=C(NS(=O)(=O)C1CC1)c1cc(C2CC2)c(CN2CCC(Oc3ccc(Cl)c(C(F)(F)F)c3)CC2)cc1F [Example 520, 4-((4-(4-chloro-3-(trifluoromethyl)phenoxy)piperidin-1-yl)methyl)-5-cyclopropyl-N-(cyclopropylsulfonyl)-2-fluorobenzamide, trifluoroacetic acid salt]
26 |  | 5 nM | COC[C@@H](c1ccc(F)c(C(F)(F)F)c1)N1CCC(COc2cc(F)c(C(=O)NS(C)(=O)=O)cc2C2CC2)CC1 (single isomer, unassigned) [Example 187]
27 |  | 5.7 nM | C[C@H](c1cc(Cl)cc(C(F)(F)F)c1)N1CCC(COc2cc(F)c(C(=O)NS(C)(=O)=O)cc2C2CC2)CC1 (single isomer, unassigned) [Example 276]
28 |  | 14.8 nM | O=C(NS(=O)(=O)C1CC1)c1cc(C2CC2)c(OCC2CCN(S(=O)(=O)c3cc(F)c(F)c(F)c3)CC2)cc1F [Example 381, 5-cyclopropyl-N-(cyclopropylsulfonyl)-2-fluoro-4-((1-((3,4,5-trifluorophenyl)sulfonyl)piperidin-4-yl)methoxy)benzamide]
29 |  | 80.6 nM | O=C(NS(=O)(=O)C1CC1)c1cc(C2CC2)c(OCC2CCN(Cc3ncccc3C(F)(F)F)CC2)cc1F [Example 364, 5-cyclopropyl-N-(cyclopropylsulfonyl)-2-fluoro-4-((1-((3-(trifluoromethyl)pyridin-2-yl)methyl)piperidin-4-yl)methoxy)benzamide, trifluoroacetic acid salt]
30 |  | 3.6 nM | CC1(Oc2cc(C(F)(F)F)c(Cl)cn2)CCN(Cc2cc(F)c(C(=O)NS(=O)(=O)C3CC3)cc2C2CC2)CC1 [Example 472, 4-((4-((5-chloro-4-(trifluoromethyl)pyridin-2-yl)oxy)-4-methylpiperidin-1-yl)methyl)-5-cyclopropyl-N-(cyclopropylsulfonyl)-2-fluorobenzamide, trifluoroacetic acid salt]
31 |  | 8.5 nM | CS(=O)(=O)NC(=O)c1cc(C2CC2)c(OCC2CCN(Cc3cc(Cl)c(F)cc3F)CC2)cc1F [Example 455, trifluoroacetic acid salt]
32 |  | 56 nM | CS(=O)(=O)NC(=O)c1cc(C2CC2)c(OCC2CCN(Cc3cnc(OCC(F)(F)F)c(Cl)c3)CC2)cc1F [Example 190, 4-((1-((5-Chloro-6-(2,2,2-trifluoroethoxy)pyridin-3-yl)methyl)piperidin-4-yl)methoxy)-5-cyclopropyl-2-fluoro-N-(methylsulfonyl)benzamide]
33 | 5.2 nM |  | O=C(NS(=O)(=O)C1CC1)c1cc(C2CC2)c(CN2CCC(Oc3cc(C(F)(F)F)c(Cl)cn3)CC2)cc1F [Example 522, 4-((4-((5-chloro-4-(trifluoromethyl)pyridin-2-yl)oxy)piperidin-1-yl)methyl)-5-cyclopropyl-N-(cyclopropylsulfonyl)-2-fluorobenzamide, trifluoroacetic acid salt]

— patent US9546164B2 (GENENTECH, INC., priority 2013, dated 2017)
